Read-outs that look alike come from different tables or passages of the source.
Tested on: utrophin protein in human muscle cells derived from DMD patients
Experiment: Cell-based ELISA for normalized utrophin protein level in primary human myotube cultures
Conditions: for % UTR vs. PDN (normalized utrophin protein as % of PDN-treated sister cultures): same experiment; for activity at 0.5 µM: Myotube, read-out: % UTR vs. DMSO (normalized utrophin protein over DMSO-solvent treated control)
Experimental: The method used to detect and determine utrophin-inducing activity of non-glucocorticoid steroids has been described previously (Courdier-Fruh, I., Barman, L., Briguet, A. & Meier, T.; 2002, Neuromuscul. Disord.; 12 Suppl:S95). Briefly, primary human muscle cell cultures were prepared according to standard protocols (Askanas V, Kwan H, Alvarez R B, Engel W K, Kobayashi T, Martinuzzi A, Hawkins E F., 1987, J Neurocytol., 16:523-537). Test compounds and the glucocorticoid 6α-methylprednisolone-21 sodium succinate (Pharmacia & Upjohn; Solu-Medrol®, PDN) as reference compound were applied at 500 nM final concentration as soon as myoblasts started to differentiate into myotubes. Incubation with the test compound was ended as soon as well differentiated myotubes have formed, typically resulting in an incubation time with a test compound for 3-7 days.
Normalized concentrations of utrophin protein in human muscle cells cultured in microtiter plates were determined by a cell-based enzyme-linked immunosorbent assay (ELISA) procedure that allows a successive readout for the cell density and utrophin protein level. For calibration, the cell density and differentiation was determined by absorbance measurements of the total dehydrogenase enzyme activity in each well using the colorimetric CellTiter 96®AQ One Solution Reagent Proliferation Assay (Promega) according to the manufacturer's recommendation. Subsequently, cells were fixed, washed, permeabilized with 0.5% (v/v) Triton X-100 and unspecific antibody binding-sites were blocked by standard procedures. Utrophin protein levels were determined immunologically with utrophin-specific primary antibodies (mouse monoclonal antibody to the amino terminal portion of utrophin, NCL-DRP2, Novocastra Laboratories) and with appropriate peroxidase-coupled secondary antibodies using QuantaBlu™ Fluorogenic Peroxidase Substrate Kit (Pierce) for detection. Fluorescence measurements were carried out with a multilabel counter (Wallac) at λex=325 nm and at λem=420 nm. The primary readout of this signal is presented in arbitrary units. For calibration, the arbitrary units representing the relative utrophin protein content of each well were divided by the corresponding cell-titer absorbance value to correct for cell density. For comparison between experiments, the cell-titer corrected readout for utrophin protein content in each well was expressed in percent of solvent treated control cultures (set to 100%). PDN was included in all experiments as reference glucocorticoid, N=3-5 for each compound tested.
Non-glucocorticoid test compounds, applied in a concentration of 500 nM, were regarded as “positive” in case the increase in the level of utrophin protein was at least 20% (mean value) over control cultures treated with the appropriate dilution of DMSO solvent as control and containing no test compound.
A range of different pharmaceutical compounds were tested for their ability to increase levels of utrophin protein in primary human myotube cultures. The cell-based ELISA protocol used to detect the level of utrophin protein is provided above and described in Courdier-Fruh, I., Barman, L., Briguet, A. & Meier, T, 2002, Neuromuscul. Disord.: 12, Suppl:S95. Briefly, fixed and permeabilized human muscle cells derived from DMD patients and cultured in 96-well cell culture plates were incubated with antibodies specific for utrophin at a dilution of 1:1'000 in blocking solution (phosphate buffered saline (PBS) supplemented with 2% fetal calf serum and 1% bovine serum albumin) for 10-15 hours at 4° C. Following several washing steps with 0.1% Triton X-100 in PBS, peroxidase-coupled secondary antibodies diluted 1:3'000 in blocking solution were applied in each well for 1-2 hours at room temperature. Signal detection, data acquisition and normalization was performed as described above and in Courdier-Fruh, I., Barman, L., Briguet, A. & Meier, T, 2002, Neuromuscul. Disord.: 12, Suppl:S95. […]

[1] = 500 nM compound, human muscle cultures, mean value, N=3-6

CC(=O)O[C@@H]1CC[C@]2(C)C3C[C@H](OC(C)=O)[C@]4(C)C(C(C)CCC(=O)O)CCC4C3CC[C@@H]2C1 (some centres unmarked) [Example 3]
% UTR vs. PDN (normalized utrophin protein as % of PDN-treated sister cultures) [1]: 122%
activity at 0.5 µM (Homo sapiens): 144%

CC(=O)O[C@@H]1CC[C@]2(C)C3C(=O)C[C@]4(C)C(C(C)CCC(=O)O)CCC4C3CC[C@@H]2C1 (some centres unmarked) [Example 4]
% UTR vs. PDN (normalized utrophin protein as % of PDN-treated sister cultures) [1]: 112%
activity at 0.5 µM (Homo sapiens): 130%

CC(CCC(=O)O)C1CCC2C3CC(=O)[C@@H]4C[C@H](O)CC[C@]4(C)C3CC[C@]12C (some centres unmarked) [Example 5]
% UTR vs. PDN (normalized utrophin protein as % of PDN-treated sister cultures) [1]: 108%
activity at 0.5 µM [1]: 136%

CC(CCC(=O)O)C1CCC2C3CC[C@@H]4C[C@H](OC(=O)c5ccccc5)CC[C@]4(C)C3C(=O)C[C@]12C (some centres unmarked) [Example 6]
% UTR vs. PDN (normalized utrophin protein as % of PDN-treated sister cultures) [1]: 106%
activity at 0.5 µM (Homo sapiens): 123%

CC(=O)O[C@@H]1CC[C@]2(C)C3CC[C@]4(C)C(C(C)CCC(=O)O)CCC4C3CC[C@@H]2C1 (some centres unmarked) [Example 7]
% UTR vs. PDN (normalized utrophin protein as % of PDN-treated sister cultures) [1]: 104%
activity at 0.5 µM (Homo sapiens): 121%

CC(CCC(=O)O)C1CCC2C3CC[C@@H]4CC(=O)CC[C@]4(C)C3CC[C@]12C (some centres unmarked) [Example 8]
% UTR vs. PDN (normalized utrophin protein as % of PDN-treated sister cultures) [1]: 99%
activity at 0.5 µM [1]: 120%

CC(CCC(=O)O)C1CCC2C3CC[C@@H]4C[C@H](O)CC[C@]4(C)C3CC[C@]12C (some centres unmarked) [Example 9]
% UTR vs. PDN (normalized utrophin protein as % of PDN-treated sister cultures) [1]: 98%
activity at 0.5 µM [1]: 119%

CC(CCC(=O)O)C1CCC2C3C(CC[C@]12C)[C@@]1(C)CC[C@@H](O)C[C@H]1C[C@@H]3O (some centres unmarked) [Example 10]
% UTR vs. PDN (normalized utrophin protein as % of PDN-treated sister cultures) [1]: 96%
activity at 0.5 µM (Homo sapiens): 121%

C[C@H](CCC(=O)O)[C@H]1CC[C@H]2[C@@H]3[C@H](O)C[C@@H]4C[C@H](O)CC[C@]4(C)[C@H]3CC[C@]12C [Example 11, 3α,7α-dihydroxy-5β-cholanic acid]
inhibition of CDCA-mediated utrophin increase by glucocorticoid receptor antagonist RU38486 (500 nM CDCA + 500 nM RU38486 simultaneously, human DMD-patient derived muscle cells, FIG. 2): not inhibited
% UTR vs. PDN (normalized utrophin protein as % of PDN-treated sister cultures) [1]: 81%
activity at 0.5 µM (Homo sapiens): 172%
utrophin protein levels normalized to cell density (UTR, relative units) compared to solvent-treated control (DMSO) (human DMD-patient derived muscle cells, 500 nM, FIG. 1 / FIG. 2, N=5-6, listed as CDCA): significantly increased

CC(CCC(=O)O)C1CCC2C3CC=C4C[C@H](O)CC[C@]4(C)C3CC[C@]12C (some centres unmarked) [Example 13]
% UTR vs. PDN (normalized utrophin protein as % of PDN-treated sister cultures) [1]: 96%
activity at 0.5 µM (Homo sapiens): 126%

CC(=O)O[C@H]1CC[C@]2(C)C3C(=O)C[C@@]4(C)[C@H](C(C)CCC(=O)O)CC[C@]4(C)C3C(=O)CC2C1(C)C (some centres unmarked) [Example 14]
% UTR vs. PDN (normalized utrophin protein as % of PDN-treated sister cultures) [1]: 92%
activity at 0.5 µM (Homo sapiens): 115%

CC(CCC(=O)O)C1CCC2C3C(=O)C[C@@H]4CC(=O)CC[C@]4(C)C3CC(=O)[C@]12C (some centres unmarked) [Example 15]
% UTR vs. PDN (normalized utrophin protein as % of PDN-treated sister cultures) [1]: 92%
activity at 0.5 µM [1]: 117%

C[C@H](C(=O)O)C1CCC2C3CC=C4C[C@H](O)CC[C@]4(C)C3CC[C@@]21C (some centres unmarked) [Example 16]
% UTR vs. PDN (normalized utrophin protein as % of PDN-treated sister cultures) [1]: 104%
activity at 0.5 µM (Homo sapiens): 136%

CCOC(=O)[C@H]1CCC2C3CC=C4C[C@@H](OC(=O)c5ccccc5)CC[C@]4(C)C3CC[C@@]21C (some centres unmarked) [Example 17]
% UTR vs. PDN (normalized utrophin protein as % of PDN-treated sister cultures) [1]: 103%
activity at 0.5 µM (Homo sapiens): 120%

C[C@]12CCC(=O)C=C1CCC1C2CC[C@]2(C)[C@@H](C(=O)O)CC[C@]12O (some centres unmarked) [Example 18]
% UTR vs. PDN (normalized utrophin protein as % of PDN-treated sister cultures) [1]: 101%
activity at 0.5 µM (Homo sapiens): 120%

CC(=O)O[C@@H]1CC[C@]2(C)C3CC[C@]4(C)[C@@H](C(=O)O)[C@@H](OC(C)=O)C[C@]4(O)C3CC[C@@H]2C1 (some centres unmarked) [Example 19]
% UTR vs. PDN (normalized utrophin protein as % of PDN-treated sister cultures) [1]: 98%
activity at 0.5 µM (Homo sapiens): 123%

CC1CC[C@@]2(OC1)O[C@H]1C[C@H]3[C@@H]4CC[C@H]5C[C@@H](OC(=O)c6ccccc6)CC[C@]5(C)C4=CC(=O)[C@]3(C)C1[C@@H]2C (some centres unmarked) [Example 20]
% UTR vs. PDN (normalized utrophin protein as % of PDN-treated sister cultures) [1]: 113%
activity at 0.5 µM (Homo sapiens): 131%

CC(=O)O[C@H]1CC[C@]2(C)C3C[C@@H](O)[C@]4(C)C5[C@H](C[C@H]4[C@@H]3CC[C@H]2C1)O[C@]1(CCC(C)CO1)[C@H]5C (some centres unmarked) [Example 21]
% UTR vs. PDN (normalized utrophin protein as % of PDN-treated sister cultures) [1]: 105%
activity at 0.5 µM (Homo sapiens): 130%

CC1CC[C@@]2(OC1)O[C@H]1C[C@H]3[C@@H]4CC[C@H]5C[C@@H](OC(=O)c6ccccc6)CC[C@]5(C)C4=CC[C@]3(C)C1[C@@H]2C (some centres unmarked) [Example 22]
% UTR vs. PDN (normalized utrophin protein as % of PDN-treated sister cultures) [1]: 106%
activity at 0.5 µM (Homo sapiens): 123%

CC(=O)O[C@H]1CC[C@]2(C)C3=CC(=O)[C@]4(C)C5[C@H](C[C@H]4[C@@H]3CC[C@H]2C1)O[C@]1(CCC(C)CO1)[C@H]5C (some centres unmarked) [Example 23]
% UTR vs. PDN (normalized utrophin protein as % of PDN-treated sister cultures) [1]: 103%
activity at 0.5 µM (Homo sapiens): 129%

CC(=O)O[C@H]1CC[C@]2(C)C3C(=O)[C@@H](OC(C)=O)[C@]4(C)C5[C@H](C[C@H]4[C@@H]3CC[C@H]2C1)O[C@]1(CCC(C)CO1)[C@H]5C (some centres unmarked) [Example 24]
% UTR vs. PDN (normalized utrophin protein as % of PDN-treated sister cultures) [1]: 103%
activity at 0.5 µM (Homo sapiens): 134%

CC(=O)O[C@H]1CC[C@]2(C)C3C=C[C@]4(C)C5[C@H](C[C@H]4[C@@H]3CC[C@H]2C1)O[C@]1(CCC(C)CO1)[C@H]5C (some centres unmarked) [Example 25]
% UTR vs. PDN (normalized utrophin protein as % of PDN-treated sister cultures) [1]: 102%
activity at 0.5 µM (Homo sapiens): 129%

COC(=O)CCC(=O)O[C@H]1CC[C@]2(C)C3C(=O)[C@@H](O)[C@]4(C)C5[C@H](C[C@H]4[C@@H]3CC[C@H]2C1)O[C@]1(CCC(C)CO1)[C@H]5C (some centres unmarked) [Example 26]
% UTR vs. PDN (normalized utrophin protein as % of PDN-treated sister cultures) [1]: 98%
activity at 0.5 µM (Homo sapiens): 123%

CC1CC[C@@]2(OC1)O[C@H]1C[C@H]3[C@@H]4CC[C@H]5C[C@@H](O)CC[C@]5(C)C4CC(=O)[C@]3(C)C1[C@@H]2C (some centres unmarked) [Example 27]
% UTR vs. PDN (normalized utrophin protein as % of PDN-treated sister cultures) [1]: 97%
activity at 0.5 µM (Homo sapiens): 122%

CC1CC[C@@]2(OC1)O[C@H]1C[C@H]3[C@@H]4CC[C@H]5CC(=O)CC[C@]5(C)C4CC[C@]3(C)C1[C@@H]2C (some centres unmarked) [Example 28]
% UTR vs. PDN (normalized utrophin protein as % of PDN-treated sister cultures) [1]: 93%
activity at 0.5 µM (Homo sapiens): 120%

CC1CC[C@@]2(OC1)O[C@H]1C[C@H]3[C@@H]4CC[C@H]5C[C@@H](O)CC[C@]5(C)C4CC[C@]3(C)C1[C@@H]2C (some centres unmarked) [Example 29]
% UTR vs. PDN (normalized utrophin protein as % of PDN-treated sister cultures) [1]: 91%
activity at 0.5 µM (Homo sapiens): 120%

CC(C)CCCC(C)[C@H]1CCC2C3C(=O)C[C@H]4C[C@@H](OC(=O)c5ccccc5)CC[C@]4(C)C3CC[C@@]21C (some centres unmarked) [Example 30]
% UTR vs. PDN (normalized utrophin protein as % of PDN-treated sister cultures) [1]: 109%
activity at 0.5 µM (Homo sapiens): 127%

CC(C)CCCC(C)[C@H]1CCC2C3C(=O)C=C4C[C@@H](O)CC[C@]4(C)C3CC[C@@]21C (some centres unmarked) [Example 31]
% UTR vs. PDN (normalized utrophin protein as % of PDN-treated sister cultures) [1]: 109%
activity at 0.5 µM (Homo sapiens): 137%

CC(C)CCCC(C)[C@H]1CCC2C3CC[C@H]4CC(=O)CC[C@]4(C)C3CC[C@@]21C (some centres unmarked) [Example 32]
% UTR vs. PDN (normalized utrophin protein as % of PDN-treated sister cultures) [1]: 104%
activity at 0.5 µM (Homo sapiens): 132%

CC(C)CCCC(C)[C@H]1CCC2C3=CC[C@H]4C[C@@H](O)CC[C@]4(C)C3CC[C@@]21C (some centres unmarked) [Example 33]
% UTR vs. PDN (normalized utrophin protein as % of PDN-treated sister cultures) [1]: 99%
activity at 0.5 µM (Homo sapiens): 125%
